Results reported in patent US4775684A, “1,3-dioxane ethers” (Imperial Chemical Industries PLC, priority 1985, dated 1988).

Assays:
[1] = molecular target: T1, U46619 stimulated platelet aggregation (Homo sapiens, UniProt P21731); assay: blood platelet aggregation test (procedure (b)), U46619 stimulated aggregation of human citrated platelet-rich plasma; type: cell-based; conditions: U46619, averaged over several concentrations
T1 construct: human, citrated platelet-rich plasma; endogenous in cells; host or cells: human platelets in citrated platelet-rich plasma
T1 sequence (P21731 1-343): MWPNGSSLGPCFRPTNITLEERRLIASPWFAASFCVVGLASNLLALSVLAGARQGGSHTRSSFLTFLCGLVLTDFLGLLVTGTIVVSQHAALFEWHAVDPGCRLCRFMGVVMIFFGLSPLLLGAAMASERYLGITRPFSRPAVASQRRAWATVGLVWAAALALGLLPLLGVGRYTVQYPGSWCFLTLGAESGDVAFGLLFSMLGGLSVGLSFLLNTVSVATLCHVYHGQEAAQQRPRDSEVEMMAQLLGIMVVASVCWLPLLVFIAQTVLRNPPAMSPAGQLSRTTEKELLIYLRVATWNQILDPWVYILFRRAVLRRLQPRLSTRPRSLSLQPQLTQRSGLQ
Description: (b) a blood platelet aggregation test based on that described by Born (Nature, 1962, 194, 927-929) and involving:
(i) aggregating human, citrated platelet-rich plasma by addition of the TXA2 mimetic agent U46619 so that a dose-response curve is generated;
(ii) generating a dose-response curve for U46619 stimulated platelet aggregation in the presence of increasing amounts of test compound (generally in the range, 10^-5 M to 10^-10 M); and
(iii) calculating a KB value indicating potency of TXA2 antagonism for the test compound, averaged over several concentrations, from the calculated 50% response value for U46619 aggregation in the presence and absence of test compound; and […]

rat aortal strip = molecular target: T2, rat aortal strip (Rattus norvegicus, UniProt P34978); assay: rat aortal strip model (procedure (a)), agonist U46619; type: cell-based; conditions: read-out: pA2 (converted)
T2 construct: rat aortal strip model; from tissue; host or cells: rat aorta strip
T2 sequence (P34978 1-341): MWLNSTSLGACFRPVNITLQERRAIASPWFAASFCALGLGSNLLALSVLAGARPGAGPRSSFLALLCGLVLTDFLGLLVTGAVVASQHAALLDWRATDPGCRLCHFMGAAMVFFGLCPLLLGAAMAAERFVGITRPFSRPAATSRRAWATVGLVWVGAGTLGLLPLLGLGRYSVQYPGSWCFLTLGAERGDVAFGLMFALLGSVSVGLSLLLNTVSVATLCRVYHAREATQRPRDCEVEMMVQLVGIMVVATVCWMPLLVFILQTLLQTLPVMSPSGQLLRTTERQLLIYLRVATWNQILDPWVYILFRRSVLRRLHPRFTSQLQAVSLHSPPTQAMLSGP
Description: As stated earlier, the compounds of formula I are antagonists of one or more of the actions of TXA2, for example certain of its actions on blood platelets, the vasculature and/or the lung.
(a) The rabbit aortal strip model devised by Piper and Vane (Nature, 1969, 223, 29-35) or the rat aortal strip model developed by Kennedy et alia (Prostaglandins, 1982, 24, 667-689), using as agonist the TXA2 mimtic agent known as U46619 (described by R. L. Jones et alia, in "Chemistry, Biochemistry and Pharmacological Activity of Prostanoids" edited by S. M. Roberts and F. Scheinmann, at page 211, Pergamon Press, 1979);

CC(C)(Oc1ccccc1)[C@@H]1OC[C@H](C/C=C\CCC(=O)O)[C@H](c2ccccc2O)O1 (relative stereo) [Example 6, 4(Z)-6-([2,4,5-cis]-2-[1-methyl-1-phenoxyethyl]-4-o-hydroxyphenyl-1,3-dioxan-5-yl)hexenoic acid]
Kb [1]: 17.5 nM
Kb (rat aortal strip): 0.195 nM
